In PubChem BioAssay AID449764 (Southern Research Specialized Biocontainment Screening …, 2010):

Tested on: Mycobacterium tuberculosis H37Rv growth inhibition, no glycerol
Experiment: Mycobacterium tuberculosis H37Rv growth inhibition, no glycerol, confirmatory dose response (AID 449764);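 further: growth read after 7 days of incubation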
Conditions: for IC90: measured here: IC90 growth inhibition

Row | Compound | IC50 [µM] | IC90 [µM]
1 | O=C1c2cccc3c([N+](=O)[O-])ccc(c23)C(=O)N1O | 11.9 | 13.5
2 | Cc1ccc(-n2nnc3c(=O)oc4ccccc4c32)cc1 | 1.88 | > 100
3 | CS(=O)(=O)c1ncc(Cl)c(C(=O)Nc2ccc(OC(F)F)cc2)n1 | 13.6 | > 25
4 | CSc1nsc(SCC(=O)N2CCCCC2)n1 | 8.65 | 12.9
5 | FC(F)(F)c1cc(CO[C@@H]2CCCN[C@@H]2c2ccccc2)cc(C(F)(F)F)c1 | 27.4 | 38.2
6 | Cc1ccc(S(=O)(=O)N(C)c2ccc(OCC(=O)OCc3ccc(C#N)cc3)cc2)cc1 | 17.3 | 28.3
7 | Cc1ccc(Nc2nc(CSc3nnc(-c4cccs4)o3)cs2)cc1 | 43.3 | > 100
8 | Cc1nn(-c2ccccc2)c(Cl)c1/C=C/C(=O)c1ccccc1 | 74.9 | 97.2
9 | Cc1cc(C(=O)COC(=O)C2=COCCO2)c(C)n1-c1cccc(F)c1 | 9.64 | > 100
10 | CCc1nc2ccccc2c(C(=O)Nc2cc(C)ccc2C)c1C |  | > 100
11 | COc1cc2ccccc2cc1C(=O)Nc1ccc(Cc2ccncc2)cc1 | 18.9 | 27.3
12 | O=C(OCc1ccccc1F)c1cnc(Cl)c(Cl)c1 | 22 | 55
13 | Cc1nn(-c2ccccc2)c2c1C(c1ccc([N+](=O)[O-])cc1)N1C(=N2)C(=O)Nc2ccccc21 (centres undefined) | 55.3 | > 100
14 | O=C(/C=C/c1ccccc1)N1CCN(CCN2C(=O)c3cccc4cccc(c34)C2=O)CC1 | 2.44 | 3.96
15 | CN(C)N=Nc1nc[nH]c1C(N)=O | 5.04 | 8.38
16 | CCOC(=O)Cc1csc(NC(=O)c2c(O)c3c(n(CC(C)C)c2=O)CCCC3)n1 | 18.5 | 36.7
17 | Clc1cccc(-c2cc3nc4c(c(NCc5ccco5)n3n2)CCCC4)c1 | 22.1 | 24.7

Row | Compound | IC50 [µM] | IC90 [µM]
18 | CCC(=O)Oc1ccc(C(=O)Nc2ccc3c(c2)C(=O)N(C2CCCCC2)C3=O)cc1 | 24.1 | 28.3
19 | CN(CCO)c1cc(Sc2nc3ccccc3s2)c2nonc2c1[N+](=O)[O-] | 74.4 | 95
20 | CN(C(=O)COC(=O)c1ccc([N+](=O)[O-])cc1Cl)C1CCCCC1 | 19.2 | > 100
21 | CCc1cc2c(=O)c(-c3cnn(-c4ccccc4)c3)c(C)oc2c(CN2CCCCC2)c1O | 32.4 | 52.4
22 | NN(Cc1ccccc1)C(=S)Nc1ccc(Cl)c(Cl)c1 | 25.2 | 39.4
23 | Cc1ccc(Nc2nc(N)nc(CN3CCc4ccccc4C3)n2)cc1 | 5.61 | 18.6
24 | CCOC1OC(=O)C(Cl)=C1Nc1ccccc1C (centres undefined) | 3.39 | 7.24
25 | CCOC(=O)Cn1c(C)c(Br)c(=O)c2cccc(C)c21 | 23 | 26.6
26 | CCOC(=O)C(C)Sc1ncnc2c1nnn2-c1ccc(F)cc1 (centres undefined) | 2.61 | 9.68
27 | Cc1cc(C)c2oc(-c3ccc(C)c(NC(=S)NC(=O)/C=C/c4ccco4)c3)nc2c1 | 77.5 | > 100
28 | CNC(=O)COC(=O)c1ccc(-c2nc3ccccc3s2)s1 | 9.68 | 16.3
29 | CCNC(=S)NN=C1c2ccccc2-c2ccccc21 | 11 | > 25
30 | O=C1c2ccccc2CC1Sc1nnc(-c2ccncc2)o1 (centres undefined) |  | > 100
31 | c1ccc(Cn2c3ccccc3c3nnc(SCCN4CCCCC4)nc32)cc1 | 27.5 | 42.1
32 | COc1ccc(-c2nnc(NC(=O)c3ccc([N+](=O)[O-])o3)o2)c(OC)c1 | 6.13 | 14
33 | Cc1ccc(NCc2ccc(O)c3ncccc23)cc1C | 96.3 | > 100
